# Reference: PubChem BioAssay (NCI)
#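 Method: 48-hour compound exposure of cells in 96-well plates, five concentrations, linear interpolation of endpoints. TGI marks complete inhibition of growth.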
# Legend:
# Assay in all cases: inhibition of tumour cell growth, NCI panel, 48 h
# [1] = system: PC-3 prostate
# [2] = system: MALME-3M melanoma
# [3] = system: HOP-62 NSCLC
# [4] = system: HCC-2998 colon
# [5] = system: 786-0 renal
# [6] = system: UACC-257 melanoma
# [7] = system: ACHN renal
# [8] = system: DU-145 prostate
# [9] = system: MDA-N
# [10] = system: COLO 205 colon
# [11] = system: K-562 leukemia
# [12] = system: SR leukemia
# [13] = system: MCF7 breast
# [14] = system: SF-539 CNS
# [15] = system: BT-549 breast
# [16] = system: NCI/ADR-RES ovarian
# [17] = system: TK-10 renal
# [18] = system: T-47D breast
# [19] = system: SK-MEL-5 melanoma
# [20] = system: NCI-H460 lung
# [21] = system: HCT-15 colon
# [22] = system: SW-620 colon
# [23] = system: RPMI-8226 leukemia
# [24] = system: A549 NSCLC
# [25] = system: SK-MEL-2 melanoma
# [26] = system: NCI-H23 lung
# [27] = system: HOP-92 NSCLC
# [28] = system: SF-295 CNS
# [29] = system: SK-OV-3 ovarian
# [30] = system: CCRF-CEM leukemia
# [31] = system: UO-31 renal
# [32] = system: RXF 393 renal
# [33] = system: CAKI-1 renal
# [34] = system: SF-268 CNS
# [35] = system: OVCAR-3 ovarian
# [36] = system: SN12C renal
# [37] = system: SNB-19 CNS
# [38] = system: NCI-H226 lung
# [39] = system: OVCAR-4 ovarian
# [40] = system: HL-60(TB) leukemia
# [41] = system: A498 renal
# [42] = system: OVCAR-8 ovarian
# [43] = system: LOX IMVI melanoma
# [44] = system: HS 578T breast
# [45] = system: OVCAR-5 ovarian
# [46] = system: U251 CNS
# [47] = system: SK-MEL-28 melanoma
# [48] = system: EKVX NSCLC
# [49] = system: MDA-MB-435
# [50] = system: IGROV1 ovarian
# [51] = system: HCT-116 colon
# [52] = system: SNB-75 CNS
# [53] = system: UACC-62 melanoma
# [54] = system: M14 melanoma
# [55] = system: MDA-MB-231 breast
# [56] = system: KM12 colon
# [57] = system: MOLT-4 leukemia
# [58] = system: NCI-H522 lung
# [59] = system: HT29 colon
structure (smiles),measurement,setting,value
CCOC(=O)c1c2ccccc2n2c(=O)n(-c3ccc(OC)cc3)nnc12,TGI,[1],> 66.1 µM
same,TGI,[2],> 100 µM
same,TGI,[3],63 µM
same,TGI,[4],> 100 µM
same,TGI,[5],51.1 µM
same,TGI,[6],> 100 µM
same,TGI,[7],> 100 µM
same,TGI,[8],> 100 µM
same,TGI,[9],> 100 µM
same,TGI,[10],> 100 µM
same,TGI,[11],> 100 µM
same,TGI,[12],> 100 µM
same,TGI,[13],> 67.9 µM
same,TGI,[14],45.6 µM
same,TGI,[15],> 80.7 µM
same,TGI,[16],> 100 µM
same,TGI,[17],> 84.5 µM
same,TGI,[18],92.7 µM
same,TGI,[19],> 100 µM
same,TGI,[20],> 100 µM
same,TGI,[21],> 100 µM
same,TGI,[22],> 100 µM
same,TGI,[23],> 91.1 µM
same,TGI,[24],> 100 µM
same,TGI,[25],> 100 µM
same,TGI,[26],> 81.5 µM
same,TGI,[27],> 65.7 µM
same,TGI,[28],> 62.5 µM
same,TGI,[29],> 63.9 µM
same,TGI,[30],> 62.4 µM
same,TGI,[31],> 100 µM
same,TGI,[32],43.5 µM
same,TGI,[33],> 79.9 µM
same,TGI,[34],45.7 µM
same,TGI,[35],> 91.1 µM
same,TGI,[36],> 100 µM
same,TGI,[37],> 79.9 µM
same,TGI,[38],87.9 µM
same,TGI,[39],> 64 µM
same,TGI,[40],> 100 µM
same,TGI,[41],> 100 µM
same,TGI,[42],97.1 µM
same,TGI,[43],> 100 µM
same,TGI,[44],55.9 µM
same,TGI,[45],> 100 µM
same,TGI,[46],> 31.6 µM
same,TGI,[47],> 100 µM
same,TGI,[48],> 100 µM
same,TGI,[49],> 100 µM
same,TGI,[50],> 100 µM
same,TGI,[51],> 100 µM
same,TGI,[52],35.9 µM
same,TGI,[53],99.6 µM
same,TGI,[54],> 100 µM
same,TGI,[55],> 100 µM
same,TGI,[56],> 100 µM
c1ccc2c(c1)CCN1CCc3ccccc3C1C2 (centres undefined),TGI,[1],> 100 µM
same,TGI,[2],> 100 µM
same,TGI,[3],> 100 µM
same,TGI,[4],> 100 µM
same,TGI,[5],> 100 µM
same,TGI,[6],> 100 µM
same,TGI,[7],> 100 µM
same,TGI,[8],> 100 µM
same,TGI,[9],> 100 µM
same,TGI,[10],> 100 µM
same,TGI,[11],> 100 µM
same,TGI,[12],> 100 µM
same,TGI,[13],> 100 µM
same,TGI,[14],61.5 µM
same,TGI,[15],> 100 µM
same,TGI,[16],> 100 µM
same,TGI,[17],> 100 µM
same,TGI,[18],> 100 µM
same,TGI,[19],37 µM
same,TGI,[20],> 100 µM
same,TGI,[21],> 100 µM
same,TGI,[22],> 100 µM
same,TGI,[57],> 100 µM
same,TGI,[23],> 100 µM
same,TGI,[58],> 100 µM
same,TGI,[24],> 100 µM
same,TGI,[25],> 100 µM
same,TGI,[26],> 100 µM
same,TGI,[27],> 100 µM
same,TGI,[28],> 100 µM
same,TGI,[29],> 100 µM
same,TGI,[30],> 100 µM
same,TGI,[31],68.9 µM
same,TGI,[33],> 100 µM
same,TGI,[34],> 100 µM
same,TGI,[59],> 100 µM
same,TGI,[35],> 100 µM
same,TGI,[36],> 100 µM
same,TGI,[37],> 100 µM
same,TGI,[38],93.1 µM
same,TGI,[39],> 100 µM
same,TGI,[40],> 100 µM
same,TGI,[41],> 100 µM
same,TGI,[42],> 100 µM
same,TGI,[43],> 100 µM
same,TGI,[44],> 100 µM
same,TGI,[45],> 100 µM
same,TGI,[46],> 100 µM
same,TGI,[47],> 100 µM
same,TGI,[48],> 100 µM
same,TGI,[49],> 100 µM
same,TGI,[50],> 100 µM
same,TGI,[51],> 100 µM
same,TGI,[52],> 100 µM
same,TGI,[53],> 100 µM
same,TGI,[54],82.1 µM
same,TGI,[55],> 100 µM
same,TGI,[56],> 100 µM
